Data reported in patent US20260062387A1, “SALT-INDUCIBLE KINASE INHIBITOR COMPOUND AND PHARMACEUTICAL COMPOSITION INCLUDING THE SAME” (MITSUBISHI TANABE PHARMA CORPORATION, priority 2023, published 2026).

Assays:
Assay type in all cases: biochemical
[1] = molecular target: GST-tagged SIK3 (Homo sapiens (Human), UniProt Q9Y2K2); assay: SIK3 inhibition test (ADP-Glo Max Assay); settings: enzyme 100 nM, AMARA Peptide 100 μM, ATP 1 mM, 2 hours room temperature
Summary of the method: (§1)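 ADP formed was detected by luciferase luminescence after a 2 h room-temperature reaction with 1 mM ATP, 5 mM MgCl2 and AMARA peptide at 200 μM (SIK1, SIK2) or 100 μM (SIK3). Final GST-enzyme levels were 20 nM SIK1, 3 nM SIK2 and 100 nM SIK3. IC50 came from 16-point concentration-response data.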

[2] = molecular target: GST-tagged SIK1 (Homo sapiens (Human), UniProt P57059); assay: SIK1 inhibition test (ADP-Glo Max Assay); settings: enzyme 20 nM, AMARA Peptide 200 μM, ATP 1 mM, 2 hours room temperature
Chain of GST-tagged SIK1 (P57059 whole entry): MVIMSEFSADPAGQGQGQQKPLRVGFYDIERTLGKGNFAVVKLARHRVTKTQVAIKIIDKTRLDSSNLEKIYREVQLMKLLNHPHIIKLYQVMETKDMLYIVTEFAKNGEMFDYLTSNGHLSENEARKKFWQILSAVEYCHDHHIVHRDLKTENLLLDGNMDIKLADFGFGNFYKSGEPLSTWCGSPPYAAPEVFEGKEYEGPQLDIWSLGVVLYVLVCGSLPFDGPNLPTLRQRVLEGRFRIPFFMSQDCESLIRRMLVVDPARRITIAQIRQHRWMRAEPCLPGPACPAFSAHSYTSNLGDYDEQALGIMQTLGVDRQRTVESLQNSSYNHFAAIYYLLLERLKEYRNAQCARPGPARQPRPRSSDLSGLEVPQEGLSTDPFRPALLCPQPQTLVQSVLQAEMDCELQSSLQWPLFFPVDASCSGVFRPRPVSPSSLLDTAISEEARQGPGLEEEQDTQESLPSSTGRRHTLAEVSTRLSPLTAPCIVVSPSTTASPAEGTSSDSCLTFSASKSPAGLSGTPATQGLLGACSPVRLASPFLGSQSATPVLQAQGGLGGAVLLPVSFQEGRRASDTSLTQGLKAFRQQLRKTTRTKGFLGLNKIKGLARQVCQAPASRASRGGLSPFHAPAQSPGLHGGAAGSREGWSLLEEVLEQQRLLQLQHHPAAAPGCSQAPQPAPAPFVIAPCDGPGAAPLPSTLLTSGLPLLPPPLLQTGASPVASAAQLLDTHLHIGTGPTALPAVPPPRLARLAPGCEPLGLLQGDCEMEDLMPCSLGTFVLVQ
Summary of the method: as §1

[3] = molecular target: GST-tagged SIK2 (Homo sapiens (Human), UniProt Q9H0K1); assay: SIK2 inhibition test (ADP-Glo Max Assay); settings: enzyme 3 nM, AMARA Peptide 200 μM, ATP 1 mM, 2 hours room temperature
Chain of GST-tagged SIK2 (Q9H0K1 whole entry): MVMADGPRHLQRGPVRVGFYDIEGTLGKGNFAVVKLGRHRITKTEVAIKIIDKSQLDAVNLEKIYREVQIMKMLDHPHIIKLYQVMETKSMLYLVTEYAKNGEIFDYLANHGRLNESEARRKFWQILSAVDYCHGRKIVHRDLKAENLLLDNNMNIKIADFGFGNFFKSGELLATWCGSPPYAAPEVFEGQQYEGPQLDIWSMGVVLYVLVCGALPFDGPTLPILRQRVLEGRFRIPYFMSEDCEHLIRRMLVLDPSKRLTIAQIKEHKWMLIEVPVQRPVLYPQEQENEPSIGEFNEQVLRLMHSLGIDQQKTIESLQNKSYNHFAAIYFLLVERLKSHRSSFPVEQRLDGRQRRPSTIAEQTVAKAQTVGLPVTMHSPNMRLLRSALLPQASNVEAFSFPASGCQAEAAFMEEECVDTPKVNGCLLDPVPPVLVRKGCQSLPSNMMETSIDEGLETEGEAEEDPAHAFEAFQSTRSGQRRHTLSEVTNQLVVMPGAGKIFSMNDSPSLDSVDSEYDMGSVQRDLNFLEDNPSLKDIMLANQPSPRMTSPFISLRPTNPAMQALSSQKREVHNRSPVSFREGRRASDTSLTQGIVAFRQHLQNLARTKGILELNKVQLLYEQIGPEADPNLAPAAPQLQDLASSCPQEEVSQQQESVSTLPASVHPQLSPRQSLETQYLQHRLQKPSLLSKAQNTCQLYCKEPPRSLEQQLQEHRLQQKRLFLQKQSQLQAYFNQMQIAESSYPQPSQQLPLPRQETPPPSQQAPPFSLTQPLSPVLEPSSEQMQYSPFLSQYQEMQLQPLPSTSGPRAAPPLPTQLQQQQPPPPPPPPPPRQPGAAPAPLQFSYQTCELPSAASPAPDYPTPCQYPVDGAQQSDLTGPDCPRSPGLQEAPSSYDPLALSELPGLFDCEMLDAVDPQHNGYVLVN
Summary of the method: as §1

Chain of GST-tagged SIK3 (Q9Y2K2 whole entry): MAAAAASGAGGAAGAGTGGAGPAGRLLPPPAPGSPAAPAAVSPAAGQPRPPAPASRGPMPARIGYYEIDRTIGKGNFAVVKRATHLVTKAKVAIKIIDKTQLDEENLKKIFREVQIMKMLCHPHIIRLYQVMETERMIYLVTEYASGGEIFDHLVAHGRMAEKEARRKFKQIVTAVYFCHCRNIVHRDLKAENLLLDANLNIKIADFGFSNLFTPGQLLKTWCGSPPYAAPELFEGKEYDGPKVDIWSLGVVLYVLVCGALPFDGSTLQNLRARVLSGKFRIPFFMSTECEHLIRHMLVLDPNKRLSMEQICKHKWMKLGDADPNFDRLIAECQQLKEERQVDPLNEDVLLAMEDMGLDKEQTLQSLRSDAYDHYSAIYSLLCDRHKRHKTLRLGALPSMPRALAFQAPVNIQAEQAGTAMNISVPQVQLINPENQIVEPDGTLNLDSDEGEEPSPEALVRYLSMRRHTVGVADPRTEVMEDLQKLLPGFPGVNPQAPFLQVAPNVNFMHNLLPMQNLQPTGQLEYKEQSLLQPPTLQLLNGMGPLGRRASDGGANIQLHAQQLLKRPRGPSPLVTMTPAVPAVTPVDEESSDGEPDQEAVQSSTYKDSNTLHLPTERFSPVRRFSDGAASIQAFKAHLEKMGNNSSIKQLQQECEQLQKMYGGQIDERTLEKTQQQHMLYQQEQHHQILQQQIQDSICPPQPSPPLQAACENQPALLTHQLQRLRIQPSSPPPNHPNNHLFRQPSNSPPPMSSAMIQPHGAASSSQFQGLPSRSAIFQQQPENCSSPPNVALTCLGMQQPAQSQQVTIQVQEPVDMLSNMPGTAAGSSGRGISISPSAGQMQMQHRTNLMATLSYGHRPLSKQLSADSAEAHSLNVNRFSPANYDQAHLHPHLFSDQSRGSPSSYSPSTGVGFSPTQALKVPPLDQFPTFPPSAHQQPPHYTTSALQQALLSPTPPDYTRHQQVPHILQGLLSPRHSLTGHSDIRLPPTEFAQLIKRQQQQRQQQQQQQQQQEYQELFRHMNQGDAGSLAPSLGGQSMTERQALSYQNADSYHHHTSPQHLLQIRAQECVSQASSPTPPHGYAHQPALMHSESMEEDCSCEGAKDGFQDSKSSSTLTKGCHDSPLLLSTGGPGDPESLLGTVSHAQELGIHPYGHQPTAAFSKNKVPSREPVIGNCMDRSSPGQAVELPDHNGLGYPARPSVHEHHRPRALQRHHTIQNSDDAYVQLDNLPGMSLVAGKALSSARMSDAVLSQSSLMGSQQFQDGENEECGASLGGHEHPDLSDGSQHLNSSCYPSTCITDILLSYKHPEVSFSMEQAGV

`COc1cc(-c2c3c(C(F)F)cc(-c4cnn(C)c4)cc3nn2C)cc(OC(F)F)c1C(=O)N1CC(O)(C(F)F)C1` [Example 38, [2-(difluoromethoxy)-4-[4-(difluoromethyl)-2-methyl-6-(1-methylpyrazol-4-yl)indazol-3-yl]-6-methoxyphenyl]-[3-(difluoromethyl)-3-hydroxyazetidin-1-yl]methanone] was tested, and the IC50 [1] was 10.1 nM, the IC50 [2] was 16.8 nM and the IC50 [3] was 13.8 nM.

For `COc1cc(-c2c3c(C#N)cc(-c4cnn(C)c4)cc3nn2C)cc(OC(F)F)c1C(=O)N1CC(C#N)(C(F)F)C1` [Example 39, 3-[4-[3-cyano-3-(difluoromethyl)azetidin-1-carbonyl]-3-(difluoromethoxy)-5-methoxyphenyl]-2-methyl-6-(1-methylpyrazol-4-yl)indazole-4-carbonitrile], the IC50 [1] was 9.4 nM, the IC50 [2] was 16.2 nM and the IC50 [3] was 18.2 nM.

`COc1cc(-c2c3c(C#N)cc(/C=C/c4cnn(C)c4)cc3nn2C)cc(OC(F)F)c1C(=O)N[C@@H]1C[C@@H]1F` [Example 40, 4-[4-cyano-2-methyl-6-[(E)-2-(1-methylpyrazol-4-yl)ethenyl]indazol-3-yl]-2-(difluoromethoxy)-N-[(1R,2S)-2-fluorocyclopropyl]-6-methoxybenzamide] was tested, and the IC50 [1] was 2.1 nM, the IC50 [2] was 4.9 nM and the IC50 [3] was 3.7 nM.

With `COc1cc(-c2c3c(OCC(F)F)cc(-c4cnn(C)c4)cc3nn2C)cc(OC(F)F)c1C(=O)N1CC(O)(C(F)(F)F)C1` [Example 41, [4-[4-(2,2-difluoroethoxy)-2-methyl-6-(1-methylpyrazol-4-yl)indazol-3-yl]-2-(difluoromethoxy)-6-methoxyphenyl]-[3-hydroxy-3-(trifluoromethyl)azetidin-1-yl]methanone] the IC50 [1] was 5.3 nM, the IC50 [2] was 1.3 nM and the IC50 [3] was 7.6 nM.

Compound `CCOc1cc(-c2cnn(C)c2)cc2nn(C)c(-c3cc(OC)c(C(=O)N4CC(O)(C(F)(F)F)C4)c(OC(F)F)c3)c12` [Example 42, [2-(difluoromethoxy)-4-[4-ethoxy-2-methyl-6-(1-methylpyrazol-4-yl)indazol-3-yl]-6-methoxyphenyl]-[3-hydroxy-3-(trifluoromethyl)azetidin-1-yl]methanone] has an IC50 [1] of 10.5 nM, an IC50 [2] of 2 nM and an IC50 [3] of 12.8 nM.

With `COc1cc(-c2c3c(OC(C)C)cc(-c4cnn(C)c4)cc3nn2C)cc(OC(F)F)c1C(=O)N1CC(O)(C(F)(F)F)C1` [Example 43, [2-(difluoromethoxy)-6-methoxy-4-[2-methyl-6-(1-methylpyrazol-4-yl)-4-propan-2-yloxyindazol-3-yl]phenyl]-[3-hydroxy-3-(trifluoromethyl)azetidin-1-yl]methanone] the IC50 [1] was 20 nM, the IC50 [2] was 2.4 nM and the IC50 [3] was 19.7 nM.

`COc1cc(-c2c3c(OCCCCO)cc(-c4cnn(C)c4)cc3nn2C)cc(OC(F)F)c1C(=O)N1CC(O)(C(F)(F)F)C1` [Example 44, [2-(difluoromethoxy)-4-[4-(4-hydroxybutoxy)-2-methyl-6-(1-methylpyrazol-4-yl)indazol-3-yl]-6-methoxyphenyl]-[3-hydroxy-3-(trifluoromethyl)azetidin-1-yl]methanone] was tested, and the IC50 [1] was 15.5 nM, the IC50 [2] was 6.7 nM and the IC50 [3] was 8.4 nM.

In the case of `COc1cc(-c2c3c(OC)cc(-c4cnn(C)c4)cc3nn2C)cc(OC(F)F)c1C(=O)N[C@@H]1CC1(F)F` [Example 45, N-[(1R)-2,2-difluorocyclopropyl]-2-(difluoromethoxy)-6-methoxy-4-[4-methoxy-2-methyl-6-(1-methylpyrazol-4-yl)indazol-3-yl]benzamide], the IC50 [1] is reported as 9.4 nM, the IC50 [2] is reported as 18.9 nM and the IC50 [3] is reported as 8.6 nM.

For `COc1cc(-c2c3c(OCC[C@H](C)O)cc(-c4cnn(C)c4)cc3nn2C)cc(OC(F)F)c1C(=O)N1CC(O)(C(F)(F)F)C1` [Example 47, [2-(difluoromethoxy)-4-[4-[(3S)-3-hydroxybutoxy]-2-methyl-6-(1-methylpyrazol-4-yl)indazol-3-yl]-6-methoxyphenyl]-[3-hydroxy-3-(trifluoromethyl)azetidin-1-yl]methanone], the IC50 [1] was 19.2 nM, the IC50 [2] was 9 nM and the IC50 [3] was 16.2 nM.

For `COc1cc(-c2c3c(OCc4cnccn4)cc(-c4cnn(C)c4)cc3nn2C)cc(OC(F)F)c1C(=O)N1CC(O)(C(F)(F)F)C1` [Example 48, [2-(difluoromethoxy)-6-methoxy-4-[2-methyl-6-(1-methylpyrazol-4-yl)-4-(pyrazin-2-ylmethoxy)indazol-3-yl]phenyl]-[3-hydroxy-3-(trifluoromethyl)azetidin-1-yl]methanone], the IC50 [1] was 11.2 nM, the IC50 [2] was 3.5 nM and the IC50 [3] was 10.6 nM.

`COc1cc(-c2c3c(OCc4cnc(C)s4)cc(-c4cnn(C)c4)cc3nn2C)cc(OC(F)F)c1C(=O)N1CC(O)(C(F)(F)F)C1` [Example 49, [2-(difluoromethoxy)-6-methoxy-4-[2-methyl-6-(1-methylpyrazol-4-yl)-4-[(2-methyl-1,3-thiazol-5-yl)methoxy]indazol-3-yl]phenyl]-[3-hydroxy-3-(trifluoromethyl)azetidin-1-yl]methanone] showed an IC50 [1] of 9.7 nM, an IC50 [2] of 3.9 nM and an IC50 [3] of 11.2 nM.

`COc1cc(-c2c3c(OCc4ccc(C)nc4)cc(-c4cnn(C)c4)cc3nn2C)cc(OC(F)F)c1C(=O)N1CC(O)(C(F)(F)F)C1` [Example 50, [2-(difluoromethoxy)-6-methoxy-4-[2-methyl-6-(1-methylpyrazol-4-yl)-4-[(6-methylpyridin-3-yl)methoxy]indazol-3-yl]phenyl]-[3-hydroxy-3-(trifluoromethyl)azetidin-1-yl]methanone] was tested, and the IC50 [1] was 17.1 nM, the IC50 [2] was 6.8 nM and the IC50 [3] was 5 nM.

`COc1cc(-c2c3c(OCc4ccnnc4)cc(-c4cnn(C)c4)cc3nn2C)cc(OC(F)F)c1C(=O)N1CC(O)(C(F)(F)F)C1` [Example 51, [2-(difluoromethoxy)-6-methoxy-4-[2-methyl-6-(1-methylpyrazol-4-yl)-4-(pyridazin-4-ylmethoxy)indazol-3-yl]phenyl]-[3-hydroxy-3-(trifluoromethyl)azetidin-1-yl]methanone] showed an IC50 [1] of 14.1 nM, an IC50 [2] of 8.6 nM and an IC50 [3] of 8.9 nM.

`COc1cc(-c2c3c(OCc4cnn(C)c4)cc(-c4cnn(C)c4)cc3nn2C)cc(OC(F)F)c1C(=O)N1CC(O)(C(F)(F)F)C1` [Example 52, [2-(difluoromethoxy)-6-methoxy-4-[2-methyl-6-(1-methylpyrazol-4-yl)-4-[(1-methylpyrazol-4-yl)methoxy]indazol-3-yl]phenyl]-[3-hydroxy-3-(trifluoromethyl)azetidin-1-yl]methanone] was tested, and the IC50 [1] was 9.2 nM, the IC50 [2] was 6.2 nM and the IC50 [3] was 6 nM.

Work on `COc1cc(-c2c3c(OCc4nnc(C)o4)cc(-c4cnn(C)c4)cc3nn2C)cc(OC(F)F)c1C(=O)N1CC(O)(C(F)(F)F)C1` [Example 53, [2-(difluoromethoxy)-6-methoxy-4-[2-methyl-4-[(5-methyl-1,3,4-oxadiazol-2-yl)methoxy]-6-(1-methylpyrazol-4-yl)indazol-3-yl]phenyl]-[3-hydroxy-3-(trifluoromethyl)azetidin-1-yl]methanone] yielded an IC50 [1] of 13.6 nM, an IC50 [2] of 9.1 nM and an IC50 [3] of 7.3 nM.

Work on `COc1cc(-c2c3c(C#N)cc(-c4cnn(CCS(C)(=O)=O)c4)cc3nn2C)cc(OC(F)F)c1C(=O)NCC1(F)CC1` [Example 54, 4-[4-cyano-2-methyl-6-[1-(2-methylsulfonylethyl)pyrazol-4-yl]indazol-3-yl]-2-(difluoromethoxy)-N-[(1-fluorocyclopropyl)methyl]-6-methoxybenzamide] yielded an IC50 [1] of 5.1 nM, an IC50 [2] of 10.1 nM and an IC50 [3] of 3.2 nM.

With `Cn1cc(-c2cc(C#N)c3c(-c4ccc(C(=O)N[C@@H]5CC5(F)F)c(OC(F)F)c4)n(C)nc3c2)cn1` [Example 55, 4-[4-cyano-2-methyl-6-(1-methylpyrazol-4-yl)indazol-3-yl]-N-[(1R)-2,2-difluorocyclopropyl]-2-(difluoromethoxy)benzamide] the IC50 [1] was 2.4 nM, the IC50 [2] was 10.4 nM and the IC50 [3] was 3.5 nM.

`COc1cc(-c2c3c(C#N)cc(-c4cnn(CC(C)(C)O)c4)cc3nn2C)cc(OC(F)F)c1C(=O)NCC1(F)CC1` [Example 56] was tested, and the IC50 [1] was 11.8 nM, the IC50 [2] was 20 nM and the IC50 [3] was 16.1 nM.

Work on `COc1cc(-c2c3c(C#N)cc(-c4cnn(C[C@@H](C)O)c4)cc3nn2C)cc(OC(F)F)c1C(=O)NCC1(F)CC1` [Example 57, 4-[4-cyano-6-[1-[(2R)-2-hydroxypropyl]pyrazol-4-yl]-2-methylindazol-3-yl]-2-(difluoromethoxy)-N-[(1-fluorocyclopropyl)methyl]-6-methoxybenzamide] yielded an IC50 [1] of 9.2 nM, an IC50 [2] of 16 nM and an IC50 [3] of 10 nM.

`COc1cc(-c2c3c(C#N)cc(-c4cnn(C[C@H](C)O)c4)cc3nn2C)cc(OC(F)F)c1C(=O)NCC1(F)CC1` [Example 58, 4-[4-cyano-6-[1-[(2S)-2-hydroxypropyl]pyrazol-4-yl]-2-methylindazol-3-yl]-2-(difluoromethoxy)-N-[(1-fluorocyclopropyl)methyl]-6-methoxybenzamide] showed an IC50 [1] of 6.3 nM, an IC50 [2] of 13.7 nM and an IC50 [3] of 6.7 nM.

Compound `COc1cc(-c2c3c(C#N)cc(-c4cnn(CC5COC5)c4)cc3nn2C)cc(OC(F)F)c1C(=O)NCC1(F)CC1` [Example 59, 4-[4-cyano-2-methyl-6-[1-(oxetan-3-ylmethyl)pyrazol-4-yl]indazol-3-yl]-2-(difluoromethoxy)-N-[(1-fluorocyclopropyl)methyl]-6-methoxybenzamide] has an IC50 [1] of 6.6 nM, an IC50 [2] of 14.1 nM and an IC50 [3] of 3.8 nM.
